# In patent US12603148B2, “Method for analysis of omics data” (Max-Delbrück-Centrum für Molekulare Medizin in der …, priority 2021, dated 2026):
# System: patient derived xenografts (PDX) from localized breast cancer tumors
# Assay: Drug response of breast cancer patient derived xenografts (complete vs non/incomplete response)
# Type: in vivo
# Conditions: breast cancer PDX library; AC tested on 37 PDXs, Olaparib on 33 PDXs
# Description: A library of 37 patient derived xenografts (PDX) from localized breast cancer tumors were assayed using RNA-seq to determine gene expression profiles and Exome-seq to detect somatic mutations. AC (a combination of the chemotherapies Adriamycin (doxorubicin) and cyclophosphamide) was tested on the 37 PDXs, and 33 were also treated using Olaparib (a PARP inhibitor). The responses of the PDX to the treatments are categorized into Complete Response and non/incomplete response. […] Thus, the complete response to Olaparib results in 28 False and 5 True samples. The complete response to AC results in 26 False and 11 True samples.
structure (smiles),measurement,value
O=C(c1cc(Cc2n[nH]c(=O)c3ccccc23)ccc1F)N1CCN(C(=O)C2CC2)CC1 [Olaparib],samples showing a complete response,5 samples
same,samples showing non- or partial responses,28 samples
